pKi: −log10 of the molar value.

The assay in a line: Inhibitory effect on human liver uridine phosphorylase.

As to `O=C1NC(=S)NC(=O)C1Cc1cccc(OCc2ccccc2)c1`, the pKi was 5.43.

In turn, `O=C1NC(=O)C(Cc2cccc(OCc3ccccc3)c2)C(=O)N1` had a pKi of 5.64. Regarding `O=C1NC(=O)C(Cc2ccc(OCc3ccccc3)cc2)C(=O)N1`, the pKi was 3.93. Compound `O=C1NC(=O)C(Cc2ccccc2OCc2ccccc2)C(=O)N1` gave a pKi of 4.38.

By pKi is commonly meant −log10 of the Ki, conventionally taken in molar units. Lower therefore signals a high Ki.
